# In patent US20100169994A1, “ANIMAL MODEL” (priority 2007, published 2010):
# Entries after “also recorded” stand apart in the source; their conditions may differ.
# Tests used:
# Type in all cases: in vivo
# [1] = system: NK1−/− and NK1+/+ mice; assay: Light/dark exploration box (LDEB), locomotor activity after d-AMP with or without NK1 antagonist pretreatment; conditions: for behaviour (locomotor activity, response to d-AMP) of NK1+/+ mice given a NK1 antagonist ('pseudo knockout'): RP 67580 5 or 10 mg/kg i.p. or L 733060 5 mg/kg; for locomotor activity (number of lines crossed): d-AMP 2.5 mg/kg i.p.
# Experimental: Experiments were carried out on male NK1−/− (‘knock-out’) and NK1+/+(wild-type) mice, weighing 25-35 g (i.e. about 6-7 weeks of age). Mice were derived from a 129/Sv×C57BL/6 genetic background that had been crossed with an outbred MF1 strain (Harlan OLAC, Bicester, UK). All mice were taken from a colony maintained at University College London.
# All experiments tested the behaviour of (formerly) treatment-naïve mice in the LDEB and were carried out between 13:00 h and 15:00 h. Each LDEB consisted of a small ‘dark zone’ (length, 15 cm; width, 20 cm; 174 lux) and a larger ‘light zone’ (length 30 cm; width, 20 cm; 346 lux). The walls and floor of the ‘dark zone’ were coloured black. The walls and floor of the ‘light zone’ were coloured white. The floor of both zones was marked as a grid of 5×5 cm squares (12 in the dark zone, 24 in the light zone) which was used to score locomotor activity. The partition separating the two zones incorporated a small (white) guillotine-style door (height 10.5 cm, width 7.5 cm), which could be raised to allow animals to commute between the two compartments. Mice were tested in pairs in two LDEBs, placed side by side. At 13:00 h, each mouse was placed in the dark zone of a LDEB, with the partition door closed. After 30 min in the dark zone, mice of each genotype were randomly assigned to one of six treatment groups (n=3˜4) and given an injection (10 mL/kg; i.p) of either vehicle (one drop of Tween 80 in saline to appropriate volume) or the NK1 antagonist, RP 67580 (5 or 10 mg/kg). The same subjects were given a second injection or either saline or d-amphetamine (2.5 mg/kg, i.p), 30 min later.
# At 14:30 h, each mouse was transferred to the centre of the novel light zone, facing away from the guillotine style door. The door was immediately lifted to allow the animals to commute freely between the two compartments. Their behaviour was recorded with a Sony Handycam Vision video recorder for 30 min. The number of lines crossed by all four paws of the mouse (as an index of locomotor activity) was scored ‘blind’, in 5-min time-bins.
# In a second experiment, this protocol was repeated, substituting the NK1 antagonist, L 733060 (5 mg/kg) in place of RP 67580. All other details (including Tween vehicle) were the same.
# RP 67580 was administered at 5 or 10 mg/kg; dissolved in a drop of Tween 80 and adjusted to the appropriate concentration by adding 0.9% saline. […]
# The data were analysed by three-way (experiment testing RP 67580) or two-way (for […]) ANOVA using ‘genotype’, ‘drug’ and ‘dose’ (if appropriate) as main factors. […] Data are expressed as means±s.e.mean and P≦0.05 was set as the criterion for significance.
# [2] = system: NK1−/− and NK1+/+ mice; assay: Light/dark exploration box, locomotor activity after desipramine; conditions: desipramine 10 mg/kg i.p., FIG. 3
# Experimental: Experiments were carried out on male NK1−/− (‘knock-out’) and NK1+/+(wild-type) mice, weighing 25-31 g (i.e. about 6-7 weeks of age). Mice were derived from a 129/Sv×C57BL/6 genetic background that had been crossed with an outbred MF1 strain (Harlan OLAC, Bicester, UK). All mice were taken from a colony maintained at University College London. All experiments were performed in treatment-naïve mice, between 13:00 h and 17:00 h. Behavioural tests were carried out in a custom-built light/dark exploration box (LDEB) (length 45 cm; width 20 cm; depth 25 cm). The test box consisted of a small ‘dark zone’ (length 15 cm; 4 lux) and a larger ‘light zone’ (length 30 cm; 20 lux). The walls and floor of the ‘dark zone’ were coloured black. […] The behaviour of the mouse was recorded on video for the following 30 min. The following behaviours were later scored ‘blind’, in 10 min time-bins: i) latency to leave the light zone following forced entry (anxiety-like behaviour or impulsivity?) ii) latency to first return to the light zone following the first exit (the appearance of all four paws was the criterion for re-entry) (impulsivity) iii) number of returns to the light zone (impulsivity) iv) number of lines crossed by all four paws of the mouse (as an index of locomotor activity) Data were analysed by two-way analysis of variance (ANOVA) using ‘genotype’ and ‘treatment’ as main factors. […]
# [3] = system: NK1R−/− and NK1R+/+ mice; assay: Activity meter (locomotor activity chamber), ambulatory activity; conditions: FIG. 2
# Experimental: Behavioural tests were carried out in a standard locomotor activity chamber comprising a custom-made transparent perspex box (length 30 cm; width 19 cm; depth 18 cm). The box was placed in the centre of an activity meter (410×410 mm, Columbia Instruments, USA) which was equipped with parallel infrared beams spanning the chamber. Ambulatory activity was scored whenever the mouse interrupted two adjacent beams. Light intensity within the chamber was 82 lux. All experiments were performed in drug-naive mice, between 14:00 h and 18:30 h. […] The apparatus was cleaned thoroughly with water after each experiment.
# [4] = system: NK1−/− and NK1+/+ mice; assay: Light/dark exploration box (LDEB), locomotor activity after methylphenidate; conditions: methylphenidate 2.5 mg/kg i.p.
# Experimental: (§1) Experiments were carried out on male NK1−/− (‘knock-out’) and NK1+/+ (wild-type) mice, weighing 25-35 g (i.e. about 6-7 weeks of age). Mice were derived from a 129/Sv×C57BL/6 genetic background that had been crossed with an outbred MF1 strain (Harlan OLAC, Bicester, UK). All mice were taken from a colony maintained at University College London.
# All experiments tested the behaviour of (formerly) treatment-naïve mice in the LDEB and were carried out between 13:00 h and 15:00 h. Each LDEB consisted of a small ‘dark zone’ (length, 15 cm; width, 20 cm; 174 lux) and a larger ‘light zone’ (length, 30 cm; width 20 cm; 346 lux). The walls and floor of the ‘dark zone’ were coloured black. The walls and floor of the ‘light zone’ were coloured white. […]
# 30 min later, the mice were transferred to the centre of the novel light zone, facing away from the guillotine style door. […] Their behaviour was recorded with a Sony Handycam Vision video recorder for 30 min. The number of lines crossed by all four paws of the mouse (an index of locomotor activity) was scored ‘blind’, in 10-min time-bins. […]
# The data were analysed by two-way ANOVA using ‘genotype’ and ‘treatment as main factors. […] Data are expressed as means±s.e.mean and […] was set as the criterion for significance.
# [5] = system: NK1−/− and NK1+/+ mice; assay: Microdialysis of extracellular dopamine in frontal cortex/striatum after d-amphetamine; conditions: d-amphetamine 5 mg/kg i.p.
# Experimental: as §1
# Microdialysis probes were constructed in-house and equipped with cuprophan membrane (inner diameter 200 μm, outer diameter 250 μm, molecular weight cut-off 5 kD; Medicell International Ltd., England) forming an active dialysis window of 3.5 mm. Anaesthesia was induced in a closed chamber delivering 2.0% halothane combined with 95% O2/5% CO2 at 2 L/min. The mice were then placed in a stereotaxic frame and anaesthesia maintained, via a face mask, with 1.5% halothane in 95% O2/5% CO2 (2 L/min).
# A small incision was made in the scalp to expose the skull and reveal bregma. […] Vital signs were monitored continually to ensure a respiratory rate of 100-190/min (average: 135±20/min). […]
# The dopamine content of the dialysis samples was determined by HPLC coupled to electrochemical detection. […] Dopamine was detected using a Coulochem TI detector (ESA) and the mobile phase was conditioned by a guard cell (ESA model 5020). The […] content of the samples was calculated from the peak height of the chromatogram with reference to an external standard. […]
smiles,measurement,setting,value
COc1ccccc1CC(=N)N1C[C@@H]2C(=O)CCC(c3ccccc3)(c3ccccc3)[C@@H]2C1 [RP 67580],"behaviour (locomotor activity, response to d-AMP) of NK1+/+ mice given a NK1 antagonist ('pseudo knockout')",[1]; NK1+/+ mice,Mimics that of Nk1−/− Mice
CNCCCN1c2ccccc2CCc2ccccc21 [desipramine],hyperactivity (locomotor activity) in a light/dark exploration box,[2],reduction
same,locomotor activity in an activity chamber,[3]; NK1R+/+ mice,not NK1R+/+ mice
same,locomotor activity in an activity chamber,[3]; NK1R−/− mice,reduces locomotor activity
COC(=O)C(c1ccccc1)C1CCCCN1 (centres unmarked) [methylphenidate],locomotor activity (number of lines crossed),[4]; NK1+/+ mice,increased locomotor activity
same,locomotor activity (number of lines crossed),[4]; NK1−/− mice,reduced activity
"C[C@H](N)Cc1ccccc1 [d-AMP, d-amphetamine]",locomotor activity (number of lines crossed),[1]; NK1+/+ mice,increased
same,locomotor activity (number of lines crossed),[1]; NK1−/− mice,reduced
same,extracellular dopamine in the frontal cortex/striatum,[5]; NK1+/+ mice,increased
same,extracellular dopamine in the frontal cortex/striatum,[5]; NK1−/− mice,no d-AMP induced increase; also recorded: not NK1−/− mice
FC(F)(F)c1cc(CO[C@H]2CCCN[C@H]2c2ccccc2)cc(C(F)(F)F)c1 [L733060],"behaviour (locomotor activity, response to d-AMP) of NK1+/+ mice given a NK1 antagonist ('pseudo knockout')",[1]; NK1+/+ mice,Mimics that of Nk1−/− Mice
